From patent publication US20120088667A1, “SAFENING AGENT” (priority 2009, published 2012)
Where two headings read alike, the source gives them in different places.

Legend:
[1] = test system: Lettuce cv Set; assay: Safening of fertilisers, pot trial: phytotoxicity and vigour scores, lettuce; format: in vivo
Description: The safening system and the fertilizer were applied either simultaneously or sequentially.
Sprayed: mid-tillering phase (GS23). Winter Wheat: cv Limerick, sown 4 Jun. […] Sprayed: mid-tillering phase (GS23). Lettuce: cv Set, sown 10 Jul. 2008, at one seed per pot, in John Innes No 1 compost. Date of spraying: 30 July; Dates of measurement: 7 August, 14 August, 28 August. Sprayed: 2 true leaf stage.

[2] = test system: Soybean; assay: Root nodulation and safening, soybean, compost of low pH (Example 7.1); settings: Soybean, compost of low pH (5.0-5.5)
Description: (§1) The safener/safening system and the fertiliser were applied to the crops either simultaneously or sequentially.
(§2) Co=100% Cobalt Sulphate (20 g per litre and per hectare). FF1=20 g per litre Cobalt Sulphate (as per Co above) plus “Miracle-Gro” at xl recommended rate (applied at 15 g per 2.5 sq metres). Miracle-Gro contains: 24% N, 4% P, 13% K, plus 0.02% B, 0.03% Cu, 0.19% Fe, 0.05% Mn, 0.001% Mo and 0.03% Zn. FF2=20 g per litre Cobalt Sulphate plus Miracle-Gro at ×2 recommended rate. SAF: at least one from class (f) each at <3 g/l, plus at least one from class (c).
Scored/Counted+28 Days After Spraying. Sown in Compost of low pH (5.0-5.5) on 1 May 2008. Spray Date (VC)=4 June, V1 Date=20 June. Scored/Measured on 17 July. […] Seed density approx 110 kg/ha. Soybean treated with standard inoculant at sowing.

[3] = test system: NAVY BEAN cv Mogex; assay: Root nodulation and safening, navy bean, compost of low pH (Example 7.3); settings: compost of low pH (5.0-5.5)
Description: as §1, §2
NAVY BEAN cv Mogex. Scored/Counted+28 Days after Spraying. Sown in Compost of low pH (5.0-5.5) on 29 Apr. 2008. Spray Date (VC)=27 May, V1 Date=16 June. Scored/Measured on 11 July. Each treatment represents the mean value of 12 plants, within four replicates. No inoculum applied.

[4] = test system: Glycine max (Soybean); assay: Root nodulation and safening, soybean, compost of normal pH (Example 7.2); settings: compost of normal pH (6.5)
Description: as §1, §2
Dates as per Example 7.1 above, but sown in compost of normal pH (6.5). Each treatment represents the mean values for 12 plants, within four replicates. Sowing density 110 kg/ha. Standard inoculant applied at sowing.

[5] = test system: Winter wheat cv Alchemy; assay: Safening of herbicides (Chlorotoluron, Isoproturon, Flumioxazin), winter wheat
Description: Safening systems were applied to crops of oilseed rape and winter treated with various herbicides (Bifenox (with insecticide), Carbetamide, Propaquizafop, Chlorotoluron, Isoproturon, Flumioxazin). The safening system and the herbicide were applied to the crops either simultaneously or sequentially.
Oilseed rape: cv Excalibur, sown 26 Apr. 2008, at two seeds per 9 cm pot, sown in normal pH multi-purpose compost. Date of spraying: 6 June; Dates of measurement/scoring: 13 June, 20 June, 5 July. Winter wheat: cv Alchemy, sown 23 Apr. 2008, at seven seeds per 9 cm pot, sown in normal pH multi-purpose compost. Date of spraying: 24 May; Dates of measurement/scoring: 31 May, 7 June, 21 June. SAF: at least one from class (f) each at <3 g/l, plus at least one from class (c).
Statistical Layout: Randomised Complete Block trials, under glasshouse conditions, United Kingdom.

[6] = test system: Winter Barley cv Saffron; settings: for Phytotoxicity (0-9) (0 = Dead) + 14 Days / Phytotoxicity (0-9) (0 = Dead) + 28 Days: score 0-9, 0 = Dead; for Vigour (0-9) (9 = Most Vigour) + 14 days: score 0-9, 9 = Most Vigour; for Vigour (0-9) + 28 Days: score 0-9, +28 days
Description: (§3) The safening system and the fungicide were applied to the crops either simultaneously or sequentially, either as foliar applications or as a seed treatment.
(§4) Winter Barley: cv Saffron, sown 27 May 2008, at four/five seeds per 9 cm pot, sown in standard multi-purpose compost of pH 6.5. Date of spraying: 23 July; Dates of measurement/scoring: 30 July, 14 August, 22 August. Sprayed: mid-tillering phase (GS23). Winter Wheat: cv Limerick, sown 4 Jun. 2008, at four/five seeds per 9 cm pot, sown in standard multi-purpose compost of pH 6.5. Date of spraying: 23 July; Dates of measurement/scoring: 30 July, 14 August, 23 August. Sprayed: mid-tillering phase (GS23). Maize: cv Sundance, sown 25 May 2008, at 10 seeds per 25 cm pot, in John Innes No 1 compost. Date of measurement/assessment: 15 June. Seed treatment trial. Randomised block, mean of five replicates.
(§5) SAF: at least one from class (f) each at <3 g/l, plus at least one from class (c).

[7] = test system: Winter Wheat cv Limerick
Description: as §3, §4, §5

[8] = Table 1.7, lettuce, phosphite fertiliser (KP), score 0-9, 0 = dead
[9] = Table 1.7, lettuce, phosphite fertiliser (KP), score 0-9
[10] = Table 1.8, lettuce, KP/ATS, score 0-9
[11] = Table 1.9, lettuce, general fertilisers, score 0-9, 0 = Dead
[12] = Table 2.1, fungicide Prochloraz
[13] = Table 2.2, fungicide Flutriafol
[14] = Table 2.3, fungicides Fenpropidin and Flutriafol
[15] = Table 2.4, winter wheat, fungicide Prochloraz, score 0-9, 0 = Dead
[16] = Table 2.5, winter wheat, fungicide Flutriafol, score 0-9, 0 = Dead
[17] = score 0-9, 0 = dead, foliar, fungicides Fenpropidin and Flutriafol, Table 2.6
[18] = score 0-9, 9 = most vigour, foliar, fungicides Fenpropidin and Flutriafol, Table 2.6

Nc1ccccc1C(=O)O [AN, anthranilic acid]
6.0: Phyto-Toxicity Score (0-9) (V1) ([3]; V1, score 0-9) | Vigour Score (0-9) (V1) ([3]; V1, score 0-9)
34.2: Nodules Per Plant (V1) ([4]; V1, mean of 12 plants)
5.3: Nodulation Score (0-9) (V1) ([2]; V1, score 0-9)
5.8: Nod Score (0-9) (VC) ([2]; VC, score 0-9) | Nod Score (0-9) (VC) ([4]; VC, score 0-9)
20.9: Nodules Per Plant (V1) ([3]; V1, +28 days after spraying, no inoculum)
6.2: Vigour Score (0-9) (V1) ([2]; V1, score 0-9)
6.7: Vigour Score (0-9) (V1) ([4]; V1, score 0-9)
33.3: Nodules Per Plant (VC) ([4]; VC)
7.5: Phytotoxicity (0-9) (0 = Dead) + 14 Days [6, 12] | Phytotoxicity (0-9) (0 = Dead) + 14 Days [6, 13] | Phytotoxicity (0-9) (0 = Dead) + 14 Days [6, 14] | Phytotoxicity (0-9) (0 = Dead) + 14 Days [7, 15] | Phytotoxicity (0-9) (0 = Dead) + 14 Days [7, 16] | Phytotoxicity (0-9) (0 = Dead) + 14 Days [7, 17]
5.9: Nodulation Score (0-9) (V1) ([4]; V1, score 0-9)
8.0: Vigour (0-9) (9 = Most Vigour) + 14 days [1, 9] | Vigour (0-9) + 28 Days [1, 9] | Vigour (0-9) (9 = Most Vigour) + 14 days [1, 10] | Vigour (0-9) + 28 Days [1, 10] | Vigour (0-9) (9 = Most Vigour) + 14 days ([1]; Table 1.9, lettuce, general fertilisers, score 0-9, 9 = Most Vigour) | Vigour (0-9) + 28 Days ([1]; Table 1.9, lettuce, general fertilisers, score 0-9) | Phyto-Toxicity Score (0-9) (V1) ([2]; V1, score 0-9) | Phyto-Toxicity Score (0-9) (V1) ([4]; V1, score 0-9) | Greenness (0-9) (9 = Deeper Green) + 14 Days ([5]; Table 3.3, no herbicide) | Greenness (0-9) + 28 Days ([5]; Table 3.3, no herbicide) | Phytotoxicity (0-9) + 28 Days ([5]; Table 3.3, no herbicide) | Vigour (0-9) + 28 Days ([5]; Table 3.3, no herbicide) | Greenness (0-9) (9 = Deeper Green) + 14 Days ([5]; Table 3.4, no herbicide) | Greenness (0-9) + 28 Days ([5]; Table 3.4, no herbicide) | Phytotoxicity (0-9) + 28 Days ([5]; Table 3.4, no herbicide) | Vigour (0-9) + 28 Days ([5]; Table 3.4, no herbicide) | Greenness (0-9) (9 = Deeper Green) + 14 Days ([5]; Table 3.5, no herbicide) | Greenness (0-9) + 28 Days ([5]; Table 3.5, no herbicide) | Phytotoxicity (0-9) + 28 Days ([5]; Table 3.5, no herbicide) | Vigour (0-9) + 28 Days ([5]; Table 3.5, no herbicide) | Phytotoxicity (0-9) (0 = Dead) + 28 Days [6, 12] | Vigour (0-9) + 28 Days [6, 12] | Phytotoxicity (0-9) (0 = Dead) + 28 Days [6, 13] | Vigour (0-9) + 28 Days [6, 13] | Phytotoxicity (0-9) (0 = Dead) + 28 Days [6, 14] | Vigour (0-9) + 28 Days [6, 14] | Phytotoxicity (0-9) (0 = Dead) + 28 Days [7, 15] | Vigour (0-9) + 28 Days ([7]; Table 2.4, winter wheat, fungicide Prochloraz, score 0-9) | Phytotoxicity (0-9) (0 = Dead) + 28 Days [7, 16] | Vigour (0-9) + 28 Days ([7]; Table 2.5, winter wheat, fungicide Flutriafol, score 0-9) | Phytotoxicity (0-9) (0 = Dead) + 28 Days [7, 17] | Vigour (0-9) + 28 Days [7, 18]
3.8: Nod Score (0-9) (VC) ([3]; VC, score 0-9)
23.4: Nodules Per Plant (VC) ([3]; VC)
9.0: Phytotoxicity (0-9) (0 = Dead) + 14 Days ([5]; Table 3.3, no herbicide) | Vigour (0-9) (9 = Most Vigour) + 14 days ([5]; Table 3.3, no herbicide) | Phytotoxicity (0-9) (0 = Dead) + 14 Days ([5]; Table 3.4, no herbicide) | Vigour (0-9) (9 = Most Vigour) + 14 days ([5]; Table 3.4, no herbicide) | Phytotoxicity (0-9) (0 = Dead) + 14 Days ([5]; Table 3.5, no herbicide) | Vigour (0-9) (9 = Most Vigour) + 14 days ([5]; Table 3.5, no herbicide)
7.0: Phytotoxicity (0-9) (0 = Dead) + 14 Days [1, 8] | Phytotoxicity (0-9) (0 = Dead) + 28 Days [1, 8] | Phytotoxicity (0-9) (0 = Dead) + 14 Days ([1]; Table 1.8, lettuce, KP + ammonium thiosulphate (KP/ATS), score 0-9, 0 = dead) | Phytotoxicity (0-9) (0 = Dead) + 28 Days ([1]; Table 1.8, lettuce, KP/ATS, score 0-9, 0 = dead) | Phytotoxicity (0-9) (0 = Dead) + 14 Days [1, 11] | Phytotoxicity (0-9) (0 = Dead) + 28 Days [1, 11] | Vigour (0-9) (9 = Most Vigour) + 14 days [6, 12] | Vigour (0-9) (9 = Most Vigour) + 14 days [6, 13] | Vigour (0-9) (9 = Most Vigour) + 14 days [6, 14] | Vigour (0-9) (9 = Most Vigour) + 14 days ([7]; Table 2.4, winter wheat, fungicide Prochloraz, score 0-9, 9 = Most Vigour) | Vigour (0-9) (9 = Most Vigour) + 14 days ([7]; Table 2.5, winter wheat, fungicide Flutriafol, score 0-9, 9 = Most Vigour) | Vigour (0-9) (9 = Most Vigour) + 14 days [7, 18]
33.2: Nodules Per Plant (VC) ([2]; VC, +28 days after spraying)
28.2: Nodules Per Plant (V1) ([2]; V1, +28 days after spraying, mean of 12 plants)
3.3: Nodulation Score (0-9) (V1) ([3]; V1, score 0-9)
